We go through 2 substances from PMC11010885, “Functional Analysis and Tissue-Specific Expression of Calcitonin and CGRP with RAMP-Modulated Receptors CTR and CLR in Chickens” (Animals : an Open Access Journal from MDPI, 2024).

Entries after “also recorded” stand apart in the source; their conditions may differ.

What all share (type): cell-based
Assay [1] deals with chicken CLR in the absence or presence of RAMPs. Put plainly: cAMP/PKA pGL3-CRE-luciferase reporter assay, CLR without and with RAMPs compared. Conditions: for effect of RAMP co-expression on sensitivity of CLR: CHO cells, pGL3-CRE-luciferase. Here is the method:
(§1) Chinese hamster ovary (CHO) cells were cultured in Dulbecco’s modified Eagle’s medium (DMEM) supplemented with 10% (vol/vol) fetal bovine serum (HyClone, Logan, UT, USA), 100 U/mL penicillin G and 100 μg/mL streptomycin. The cells were maintained in a 90 mm culture dish (Nunc, Rochester, NY, USA) and incubated at 37 °C with 5% CO2. To investigate the signaling pathways associated with each receptor in CHO cells, three different reporter systems (pGL3-CRE-luciferase, pGL4-SRE-luciferase, and pGL3-NFAT-RE-luciferase) were utilized to monitor intracellular cAMP/PKA and MAPK/ERK signaling pathways and calcium mobilization of the activated receptors, respectively.
(§2) Prior to the transfection procedure, the cells were initially cultured in 6-well plates (Nunc, Rochester, NY, USA), maintaining a seeding density of approximately 300,000 cells per well. Upon achieving approximately 70% confluence, the cells underwent a co-transfection process. This procedure entailed the introduction of 700 ng of various luciferase reporter constructs (namely, pGL3-CRE-luciferase, pGL4-SRE-luciferase, or pGL3-NFAT-RE-luciferase) combined with 200 ng of a specific receptor plasmid (CTR or CLR) and 1000 ng of either RAMP1, RAMP2, RAMP3 expression plasmids, or alternatively, the empty pcDNA3.1 (+) vector. A volume of 5.7 μL of PEI MAX was used in 200 μL of buffer following the manufacturer’s protocol. After 24 h of incubation, the transfected CHO cells were subcultured in 96-well plates and passaged for an additional 24 h before peptide treatment. Then, the medium from the 96-well plates was removed, and the cells were treated with chicken CT/CGRP-containing medium (or untreated medium as a control) at concentrations ranging from 10^−12 M to 10^−6 M for 6 h. Subsequently, the cells were harvested for luciferase assays by lysing them in 1 × passive lysis buffer. To measure the luciferase activity of the cell lysate, 40 μL of luciferase assay reagent (Promega, Madison, WI, USA) was mixed with the cell lysate following the manufacturer’s instructions. The fluorescence activity of the luciferase in each treatment group was measured using a multimode microplate reader (TriStar LB941, Berthold Technologies, Bad Wildbad, Germany). Finally, the fluorescence activity of each treatment group was expressed as a relative increase ratio compared to the control group.
On the technique in general: In a reporter assay the amount or activity of a reporter protein is the signal.

The test system of assay [2] is chicken CLR. Kind of assay: MAPK/ERK pGL4-SRE-luciferase reporter assay, CLR + pcDNA in CHO cells. The following applies: 10^−12 M to 10^−6 M, 6 h, mean ± SEM, n = 3, read-out: EC50, MAPK/ERK signaling pathway. Here is the method: as §1
(§3) Prior to the transfection procedure, the cells were initially cultured in 6-well plates (Nunc, Rochester, NY, USA), maintaining a seeding density of approximately 300,000 cells per well. Upon achieving approximately 70% confluence, the cells underwent a co-transfection process. […] The fluorescence activity of the luciferase in each treatment group was measured using a multimode microplate reader (TriStar LB941, Berthold Technologies, Bad Wildbad, Germany). Finally, the fluorescence activity of each treatment group was expressed as a relative increase ratio compared to the control group.

Another assay has as its system chicken CTR + RAMP1. Put plainly: Calcium pGL3-NFAT-RE-luciferase reporter assay, CTR + RAMP1 in CHO cells. The following applies: 10^−12 M to 10^−6 M, 6 h, mean ± SEM, n = 3, read-out: EC50, calcium signaling pathway. The method, then:
as §1, §3

The test system of assay [3] is chicken CTR in the absence or presence of RAMPs. Put plainly: cAMP/PKA pGL3-CRE-luciferase reporter assay, CTR without and with RAMPs compared. Conditions: for effect of RAMP co-expression on sensitivity of CTR: CHO cells, pGL3-CRE-luciferase. Here is the method:
as §1
as §2, with “Subsequently, the cells were harvested for luciferase assays by lysing them in 1 × passive lysis buffer. To measure the luciferase activity of the cell lysate, 40 μL of luciferase assay reagent (Promega, Madison, WI, USA) was mixed with the cell lysate following the manufacturer’s instructions.” left out

A further assay has as its system chicken CLR + RAMP2. Kind of assay: cAMP/PKA pGL3-CRE-luciferase reporter assay, CLR + RAMP2 in CHO cells. Conditions: 10^−12 M to 10^−6 M, 6 h, mean ± SEM, n = 3, read-out: EC50, cAMP/PKA signaling pathway. The method, then: as §1, §3
In assay [4] the test system is chicken CLR + RAMP1. Kind of assay: cAMP/PKA pGL3-CRE-luciferase reporter assay, CLR + RAMP1 in CHO cells. The following applies: for EC50: CLR + RAMP1, CHO cells, pGL3-CRE-luciferase, 10^−12 M to 10^−6 M, 6 h, mean ± SEM, n = 3, read-out: EC50, cAMP/PKA signaling pathway. The method, then: as §1
as §2, with “Subsequently, the cells were harvested for luciferase assays by lysing them in 1 × passive lysis buffer. To measure the luciferase activity of the cell lysate, 40 μL of luciferase assay reagent (Promega, Madison, WI, USA) was mixed with the cell lysate following the manufacturer’s instructions.” left out

Assay [5] has as its system chicken CLR + RAMP3. Kind of assay: cAMP/PKA pGL3-CRE-luciferase reporter assay, CLR + RAMP3 in CHO cells. Conditions: 10^−12 M to 10^−6 M, 6 h, mean ± SEM, n = 3, read-out: EC50, cAMP/PKA signaling pathway. The method, then: as §1, §3
The next assay concerns chicken CTR + RAMP2. Kind of assay: Calcium pGL3-NFAT-RE-luciferase reporter assay, CTR + RAMP2 in CHO cells. The following applies: for EC50: CTR + RAMP2, CHO cells, pGL3-NFAT-RE-luciferase, 10^−12 M to 10^−6 M, 6 h, mean ± SEM, n = 3, read-out: EC50, calcium signaling pathway. Here is the method: as §1
as §2, with “Subsequently, the cells were harvested for luciferase assays by lysing them in 1 × passive lysis buffer. To measure the luciferase activity of the cell lysate, 40 μL of luciferase assay reagent (Promega, Madison, WI, USA) was mixed with the cell lysate following the manufacturer’s instructions.” left out

In another assay the test system is chicken CLR + RAMPs. Put plainly: Western blot CREB phosphorylation, CLR + RAMPs in CHO cells. Conditions: 10 nM, 10 min, n = 3. The method, then: (§4) To assess whether the activation of chicken CTR and CLR, along with the presence of RAMPs, can augment the phosphorylation levels of cAMP response element-binding protein (CREB), 200 ng of CTR or CLR expression plasmids were combined with 1000 ng of chicken RAMPs or an empty pcDNA3.1 (+) vector in a 100 μL buffer. The resulting mixture was then transfected into CHO cells in a 12-well plate (Nunc, Rochester, NY, USA) using 3.6 μL of PEI MAX transfection reagent. After a 24 h incubation period, the cells were exposed to chicken CT (10 nM) or CGRP (10 nM) for 10 min. Subsequently, the culture medium was removed, and the cells were lysed according to the manufacturer’s instructions. Western blot analysis was performed to quantify the levels of CREB and phosphorylated CREB (p-CREB). The optical densities were analyzed and normalized using the software, ImageJ 1.52a (National Institutes of Health, Bethesda, MD, USA). The relative expression of p-CREB/CREB was determined by calculating the ratio of the optical density to that of the control without peptide treatment (0 min).
(Immunoblotting shows a protein as a band on a membrane.)

In assay [6] the test system is chicken CLR. Kind of assay: Western blot CREB phosphorylation, CLR in CHO cells. The following applies: 10 nM, 10 min, n = 3. Here is the method: as §4
For assay [7], the system named is chicken CLR. Put plainly: Calcium pGL3-NFAT-RE-luciferase reporter assay, CLR + pcDNA in CHO cells. Conditions: 10^−12 M to 10^−6 M, 6 h, mean ± SEM, n = 3, read-out: EC50, calcium signaling pathway. Here is the method: as §1, §3
In assay [8] the test system is chicken CLR + RAMP1. Kind of assay: Western blot CREB phosphorylation, CLR + RAMP1 in CHO cells. The following applies: 10 nM, 10 min, n = 3. The method, then:
as §4

The subject of assay [9] is chicken CLR + RAMP3. Kind of assay: Western blot CREB phosphorylation, CLR + RAMP3 in CHO cells. The following applies: 10 nM, 10 min, n = 3. The method, then:
as §4

Take calcitonin [CT]: in [1], the “effect of RAMP co-expression on sensitivity of CLR” value is on record as “a slight reduction in chicken CLR’s sensitivity to CT in the presence of RAMP1”. Also, the “rank order of receptor sensitivity” value in [1] (CLR without/with RAMPs) is “CLR ≈ CLR + RAMP2 ≈ CLR + RAMP3 > CLR + RAMP1”. Besides, the EC50 in assay [1] (CLR without/with RAMPs, read-out: EC50 range over CLR, CLR + RAMP2, CLR + RAMP3, CLR + RAMP1) is 0.75 to 3.3 nM; in the assay on chicken CLR [2] it was 0.3 ± 0.12 nM; with chicken CTR + RAMP1, above 100 nM; in the assay with chicken CLR + RAMP2, 0.93 ± 0.15 nM; with chicken CLR + RAMP1 [4], 3.3 ± 0.96 nM; with chicken CLR + RAMP3 [5], 1.27 ± 0.83 nM. Further, the EC50 with chicken CTR + RAMP2 is 2.5 ± 1.81 nM. Besides, the “effect of RAMP co-expression on sensitivity of CTR” value in assay [3] is given as “does not markedly influence the sensitivity of chicken CTR for CT; also recorded: a slight decrease in sensitivity towards CT”. For the same substance, the “elevation in luciferase activity, calcium signaling” value in the assay on chicken CTR + RAMP2 (CTR + RAMP2, pGL3-NFAT-RE-luciferase, CHO cells) is recorded as “modest elevation in luciferase activity”. Moreover, the “CREB phosphorylation (p-CREB/CREB vs. control, 0 min)” value in the assay with chicken CLR + RAMPs and in the assay with chicken CLR [6] was “significantly enhanced the CREB phosphorylation” throughout.
As to calcitonin gene-related peptide [CGRP], the “effect of RAMP co-expression on sensitivity of CLR” value in [1] is “a significant increase in CLR’s sensitivity to CGRP with RAMP1 and RAMP3 co-expression; also recorded: RAMP2 co-expression led to a limited enhancement in sensitivity”. Further, the “rank order of receptor sensitivity” value is listed as “CLR + RAMP1 > CLR + RAMP3 >> CLR + RAMP2 >> CLR” in [1] (CLR without/with RAMPs) and “CTR + RAMP1 ≈ CTR + RAMP3 > CTR + RAMP2 ≈ CTR” in assay [3] (CTR without/with RAMPs). Also, the EC50 with chicken CLR [2] is above 100 nM; with chicken CTR + RAMP1, above 100 nM; with chicken CLR [7] it was above 100 nM; in the assay on chicken CLR + RAMP2, 40.9 ± 6.76 nM; with chicken CLR + RAMP1 [4] it was 0.26 ± 0.03 nM; in the assay on chicken CLR + RAMP3 [5], 1.84 ± 0.73 nM. Also, the EC50 in the assay on chicken CTR + RAMP2 was above 100 nM. In addition, in [3], the “effect of RAMP co-expression on sensitivity of CTR” value is “co-expression of RAMP1 or RAMP3 significantly increased the sensitivity of CTR to CGRP”. The “EC50 of CGRP relative to CT” value in the assay on chicken CLR + RAMP1 [4] (CLR in the presence of RAMP1) is reported as “approximately tenfold lower than CT”. Further, the “CREB phosphorylation (p-CREB/CREB vs. control, 0 min)” value in the assay with chicken CLR + RAMP1 [8] and in the assay on chicken CLR + RAMP3 [9] was “significantly enhanced the CREB phosphorylation” throughout.
